Measurements taken from patent publication EP1348696B1, “Use of optically active clausenamides for the preparation of pharmaceutical compositions, pharmaceutical compositions containing the same” (INSTITUTE OF MATERIA MEDICA, CHINESE ACADEMY OF MEDICAL …, priority 2002, dated 2003).

Tested on: β-AP (25-35)-treated rats
Assay: Morris water maze, memory impairment induced by aggregated Aβ 25-35
Format: in vivo
Conditions: A β 25-35 alone
Excerpt: Pathological features of Alzheimer's disease (AD) include extensive neuronal loss and the presence of numerous neurofibrillary tangles and senile plaques in the brain. The senile plaques contain amyloid fibrils derived from a 39-43 amino acids peptide referred to as β-amyloid or Aβ which can produce neurotoxicity. Aβ 25-35 poccesses the similar neurotoxicity and ability of self-aggregation as Aβ 1-42. Administrated aggregated Aβ 25-35 into rat's lateral cerebral ventricle induced memory impairment in Morris water maze. […] The latency for finding the platform beginning from 3th to 5th day in (-)clausenamide 8mg • kg^-1 and 40mg • kg^-1 groups was shorter than that of A β group. […] With increasing of training days, the initial heading angle became small. On the 3th day, the initial heading angle of A β group was larger than control. […] (see Tab.3)
There are four strategies for finding platform in Morris water maze: random, circle, taxis and line. In the beginning of training the search strategies for finding target is mainly circle and random, with the increasing of training, the percentage of the two strategies declined gradually, Beginning from the 3th day, declining speed in control and (-) clausenamide group was faster than A β ,(+) clausenamide and piracetam groups. Meanwhile, the appearance of taxis and line strategies in (-) clausenamide group increased markedly. Table 3a Effects of (-),(+) Clausenamide on the number of error of β-AP (25-35)-treated rats inone trial passive avoidance. Value is represented as MEAN±S.E.M.

A β 25-35: β-amyloid fragment with neurotoxicity and self-aggregation similar to Aβ 1-42; icv induces memory impairment (GSNKGAIIGLM; Amyloid-beta protein 42; UniProt P05067 696-706, looked up, fragment)
initial heading angle, Training days 1: 106.3±29.8 | initial heading angle, Training days 2: 98.7±30.4 | initial heading angle, Training days 3: 73.6±20.3 | initial heading angle, Training days 4: 60.6±23.8 | initial heading angle, Training days 5: 46.7±19.4
